Assay [1] has as its system NF-kB signaling through NIK in human embryonic kidney 293 cells. As to the kind of experiment: 293-NIK NF-kB-Luciferase reporter assay. The format is cell-based. As to conditions: HEK293, 293 cells with tetracycline-inducible NIK, 1 ug/mL doxycycline, 24 hours, read-out: inhibitory value (IC50) for 293-NIK NF-kB-Luciferase activity. From the text:
(1) The first assay was used to profile whether a test compound can inhibit the NF-kB signally through NIK inhibition without affecting cell viability. In this assay, human embryonic kidney 293 cells was stably transfected with a tetracycline-inducible NIK DNA construct containing a cytomegalovirus promoter plus two reporter DNA constructs. One reporter encoded firefly luciferase under the control of three repeats of an NF-kB response element from the ELAM-1 gene and reflects the level of NIK activity in the cells, whereas the other reporter constitutively expressed Renilla luciferase under the control of the herpes simplex virus thymidine kinase promoter and served as a general measure of cell viability. Cells were incubated with different concentrations of compounds (0.2% DMSO final) in medium containing 1 ug/mL doxycycline and 10% tet-system approved fetal bovine serum (Clontech) for 24 hours, after which the reporters' signals were detected using the Dual Glo luciferase detection system (Promega) according to the vendor's protocol. The compounds listed in Table 1 have the corresponding inhibitory value (IC50 in micromolar) for 293-NIK NF-kB-Luciferase activity (values for compounds are presented in the same order as found in Table 1): na, 0.059, na, na, na, 0.105, 0.027, na, 20, 1.2, na, 1.8, 0.0231, 0.879, 0.0361, 0.582, na, 0.142, na, 0.403, 0.059, 0.0331, na, na, 0.0573, 1.5, na, na, 0.0722, na, na, 0.589, 12.7, 3.7, 14.9, na, 0.707, 1, 0.0311, 0.332, 0.309, 0.0142, 0.051, 2.8, 0.129, na, na, 1.5, na, na, na, 1.3, 0.062, 20, 0.31, 0.104, 0.091, 0.037, 0.085, 0.279, na, 0.305, 0.064, 0.332, 0.133, 0.168, 0.217, 0.553, na and na.
(In general: Reporter assays use an easily measured gene product as a stand-in for the process of interest.)

For assay [2], the target named is T1, nuclear factor-kappa B (NF-kB)-inducing kinase (NIK) (Homo sapiens, UniProt Q99558).
T1 construct: made in house; host or cells: baculovirus-infected insect cells
As to the kind of experiment: NIK Enzyme Inhibition Assay (Transcreener ADP assay). The format is biochemical. Particulars: purified NIK 0.2-1 nM, 10 uM ATP, fluorescence polarization, Morrison's quadratic equation; read-out: inhibitory value (Ki) for NIK.

Assay [3] concerns REL-A (p65) nuclear translocation in HeLa cells. The assay is described as follows: NIK RelA Translocation Assay (classical NF-kB signaling). In kind it is cell-based. Particulars: Homo sapiens; HeLa cells, compounds 4.5 hours, 10 ng/mL TNF-α 30 minutes; read-out: inhibitory value (IC50) for NIK RelA Translocation Assay. How it is done: (§1) (2) A second set of cell assay was used to define the selectivity of NIK inhibitors toward inhibition of classical vs. non-classical NF-kB signaling and rely on quantification of the nuclear translocation of p52 (NF-kB2) and REL-A (p65) using high content cellular imaging. For the p52 (non-classical NF-kB signaling) nuclear translocation assay, HeLa cells were treated with different concentrations of compounds (0.2% DMSO final) in medium containing 10% fetal bovine serum and then stimulated with 100 ng/mL of an anti-lymphotoxin beta receptor antibody (R&D Systems) for 5 hours. In the REL-A nuclear translocation assay, HeLa cells were incubated with compounds (0.2% DMSO final) for 4.5 hours in medium containing 10% fetal bovine serum before stimulating them with 10 ng/mL tumor necrosis factor (TNF)-α (R&D Systems) for 30 minutes. Cells were fixed with 4% paraformaldehyde, permeabilized by adding 0.1% Triton X-100 in phosphate buffered saline, and then incubated with either 2 ug/mL anti-p52 antibody (Millipore) or 400 ng/mL anti-REL-A (p65) antibody (Santa Cruz Biotechnology). Finally, the cells were incubated with an Alexa488-labeled secondary antibody (Invitrogen) and DRAQ5 DNA stain (Biostatus). Imaging was carried out using an Opera reader (Perkin Elmer) and data are analyzed with the aid of Acapella software (Perkin Elmer). The p52 or REL-A translocation into the nucleus was quantified by the ratio of the nuclear to cytoplasmic signal intensity. The concentration of inhibitor required for 50% inhibition (IC50 values) in these cell assays were derived from the plots of signal vs. inhibitor concentration. The compounds in listed in Table 1 have the corresponding inhibitory value (IC50 in micromolar) for NIK p52 Translocation Assay (values for compounds are presented in the same order as found in Table 1, and “na” means the data for this assay is to be determined): 0.326, 0.33, na, na, na, 0.218, 0.07, na, na, na, 0.129, 7.6, 0.077, 3.4, na, 0.518, na, 0.059, 0.514, 0.127, na, na, 0.010, na, na, 0.313, 0.275, na, 0.0727, na, na, na, na, na, na, 0.194, na, 6.4, 0.22, 0.346, na, na, na and na, na, na, na, na, na, 0.447, na, 0.089, 0.479, 0.489, 0.243, 0.747, 1, na, 1.9, 0.552, 2.1, na. na, na, na, na and na.
The compounds in listed in Table 1 has the corresponding inhibitory value (IC50 in micromolar) for NIK RelA Translocation Assay (values for compounds are presented in the same order as found in Table 1): 0.326, 0.33, na, na, na, 0.218, 0.07, na, na, na, na, na, 0.129, 7.6, 0.077, 3.4, na, 0.518, na, 0.059, 0.514, 0.127, na, na, 0.010, na, na, 0.313, 0.275, na, na, 0.0727, na, na, na, na, na, na, 0.194, na, 6.4, 0.22, 0.346, na, na, na, na, na, na, na, na, na, 0.447, na, 0.089, 0.479, 0.489, 0.243, 0.747, 1, na, 1.9, 0.552, 2.1, na, na, na, na, na and na.

Assay [4] has as its system p52 (NF-kB2) nuclear translocation in HeLa cells. As to the kind of experiment: NIK p52 Translocation Assay (non-classical NF-kB signaling). The format is cell-based. As to conditions: Homo sapiens; HeLa cells, 100 ng/mL anti-lymphotoxin beta receptor antibody, 5 hours; read-out: inhibitory value (IC50) for NIK p52 Translocation Assay. On the procedure: as §1

T1 sequence (Q99558 whole entry): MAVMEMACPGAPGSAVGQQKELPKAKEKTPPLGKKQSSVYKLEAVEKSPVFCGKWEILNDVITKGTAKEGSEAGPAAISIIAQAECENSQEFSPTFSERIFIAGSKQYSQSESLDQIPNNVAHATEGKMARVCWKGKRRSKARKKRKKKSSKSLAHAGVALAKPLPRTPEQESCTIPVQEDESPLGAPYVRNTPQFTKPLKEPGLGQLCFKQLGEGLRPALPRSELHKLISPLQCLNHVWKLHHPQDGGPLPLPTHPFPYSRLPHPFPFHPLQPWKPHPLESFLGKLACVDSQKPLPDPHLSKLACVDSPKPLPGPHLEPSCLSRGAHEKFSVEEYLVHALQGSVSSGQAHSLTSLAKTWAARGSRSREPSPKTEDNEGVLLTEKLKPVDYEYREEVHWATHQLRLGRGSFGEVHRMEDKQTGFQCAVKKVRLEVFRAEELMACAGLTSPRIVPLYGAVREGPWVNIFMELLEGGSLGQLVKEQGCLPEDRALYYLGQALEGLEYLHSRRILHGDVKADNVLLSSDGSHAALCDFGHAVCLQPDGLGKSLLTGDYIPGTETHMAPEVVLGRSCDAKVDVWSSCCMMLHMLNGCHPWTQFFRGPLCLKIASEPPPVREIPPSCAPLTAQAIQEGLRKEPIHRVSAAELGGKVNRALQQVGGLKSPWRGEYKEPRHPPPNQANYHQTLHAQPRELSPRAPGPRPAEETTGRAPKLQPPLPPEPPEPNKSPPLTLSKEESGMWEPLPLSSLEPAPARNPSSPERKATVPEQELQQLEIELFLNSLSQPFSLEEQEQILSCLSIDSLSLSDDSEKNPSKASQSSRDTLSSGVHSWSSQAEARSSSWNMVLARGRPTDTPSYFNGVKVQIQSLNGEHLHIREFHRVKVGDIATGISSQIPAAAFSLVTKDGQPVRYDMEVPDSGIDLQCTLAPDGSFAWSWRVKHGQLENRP

Consider `Cc1nn(-c2ccnc(N)n2)c2cc(C#C[C@@](C)(O)c3nccs3)ccc12` (stereo in doubt) [Example T1-42, 4-(1-(2-aminopyrimidin-4-yl)-3-methyl-1H-indazol-6-yl)-2-(thiazol-2-yl)but-3-yn-2-ol], for which the concentration for half-maximal inhibition (IC50) in assay [1] was 14.2 nM; in assay [3] it was 220 nM. Further, the Ki in assay [2] stood at 0.14 nM.

`CC1(C(=O)Nc2cnc(N)nc2-n2ncc3ccc(C#N)cc32)COC1` [Example T1-11, N-(2-amino-4-(6-cyano-1H-indazol-1-yl)pyrimidin-5-yl)-3-methyloxetane-3-carboxamide]: in assay [4], the IC50 is 129 nM. For the same molecule, in assay [2], the Ki came out at 559 nM.

In the case of `Cc1nc2ccc(C#CC(C)(O)c3nccs3)cc2n1-c1ccnc(N)n1` (stereo not shown) [Example T1-12, 4-(1-(2-aminopyrimidin-4-yl)-2-methyl-1H-benzo[d]imidazol-6-yl)-2-(thiazol-2-yl)but-3-yn-2-ol], the values for the IC50 in assay [4] and in assay [1] were 7600 nM and 1800 nM, respectively. Also, in assay [2], the Ki is 9.3 nM.

`CC(O)(C#Cc1ccc2cnn(-c3ccnc(N)n3)c2c1)c1ncco1` (stereo not shown) [Example T1-15, 4-(1-(2-aminopyrimidin-4-yl)-1H-indazol-6-yl)-2-(oxazol-2-yl)but-3-yn-2-ol]: the half-inhibitory concentration (IC50) was 36.1 nM in assay [1] and 77 nM in assay [3]. Also, the inhibitory constant (Ki) in assay [2] amounted to 0.32 nM.

For `CC(O)(C#Cc1ccc2cnn(-c3ccnc(N)n3)c2c1)C(F)F` (stereo not shown) [Example T1-19, 4-(1-(2-aminopyrimidin-4-yl)-1H-indazol-6-yl)-1,1-difluoro-2-methylbut-3-yn-2-ol], the IC50 in assay [4] was determined as 514 nM. Also, the inhibition constant (Ki) in assay [2] is 190 nM.

Consider `CC(O)(C#Cc1ccc2[nH]c(=O)n(-c3ccnc(N)n3)c2c1)c1nccs1` (stereo not shown) [Example T1-21, 1-(2-aminopyrimidin-4-yl)-6-(3-hydroxy-3-(thiazol-2-yl)but-1-ynyl)-1H-benzo[d] imidazol-2(3H)-one], for which the IC50 in assay [1] came out at 59 nM; in assay [3], 514 nM. Moreover, in assay [2], the inhibition constant Ki turned out to be 0.3 nM.

Consider `COc1ncccc1Nc1ncnc(-n2ncc3ccc(C#N)cc32)n1` [Example T1-23, 1-(4-(2-methoxypyridin-3-ylamino)-1,3,5-triazin-2-yl)-1H-indazole-6-carbonitrile], for which the IC50 in assay [4] is 10 nM. Moreover, the Ki in assay [2] was over 5000 nM.

In the case of `CN(C)Cc1nn(-c2ccnc(N)n2)c2cc(C#CC(C)(C)O)ccc12` [Example T1-25, 4-(1-(2-aminopyrimidin-4-yl)-3-((dimethylamino)methyl)-1H-indazol-6-yl)-2-methylbut-3-yn-2-ol], the concentration for half-maximal inhibition (IC50) in assay [1] stood at 57.3 nM; in assay [3], 10 nM. For the same molecule, in assay [2], the Ki is 12 nM.

For the molecule `CC(O)(C#Cc1ccc2ncn(-c3ccnc(N)n3)c2c1)C(F)F` (stereo not shown) [Example T1-26, 4-(1-(2-aminopyrimidin-4-yl)-1H-benzo[d]imidazol-6-yl)-1,1-difluoro-2-methylbut-3-yn-2-ol], the concentration for half-maximal inhibition (IC50) is 313 nM in assay [4] and 1500 nM in assay [1]. Moreover, the Ki in assay [2] is 61 nM.

For the molecule `CC(O)(C#Cc1ccc2ncn(-c3ccnc(N)n3)c2c1)C(F)(F)F` (stereo not shown) [Example T1-27, 4-(1-(2-aminopyrimidin-4-yl)-1H-benzo[d]imidazol-6-yl)-1,1,1-trifluoro-2-methylbut-3-yn-2-ol], the IC50 in assay [4] is 275 nM. In addition, the Ki in assay [2] was found to be 570 nM.

In the case of `Cc1cc(C(C)(O)C#Cc2ccc3ncn(-c4ccnc(N)n4)c3c2)no1` (stereo not shown) [Example T1-28, 4-(1-(2-aminopyrimidin-4-yl)-1H-benzo[d]imidazol-6-yl)-2-(5-methylisoxazol-3-yl) but-3-yn-2-ol], the Ki in assay [2] was 0.42 nM. Further, in assay [3], the 50% inhibitory concentration (IC50) is 313 nM.

Take `CN(C)Cc1nn(-c2ccnc(N)n2)c2cc(C#CC(C)(O)c3ncco3)ccc12` (stereo not shown) [Example T1-32, 4-(1-(2-aminopyrimidin-4-yl)-3-((dimethylamino)methyl)-1H-indazol-6-yl)-2-(oxazol-2-yl)but-3-yn-2-ol]: the IC50 in assay [1] came out at 589 nM; in assay [3] it was 72.7 nM. Moreover, the inhibition constant (Ki) in assay [2] came to 1.3 nM.

In the case of `CC(C)(O)C#Cc1ccc2cnn(-c3cc(N)ncn3)c2c1` [Example T1-36, 4-(1-(6-aminopyrimidin-4-yl)-1H-indazol-6-yl)-2-methylbut-3-yn-2-ol], in assay [4], the half-inhibitory concentration (IC50) turned out to be 194 nM. Moreover, the inhibition constant Ki in assay [2] was 850 nM.

With `CCOc1nc2ccc(C#CC(C)(C)O)cc2n1-c1ccnc(N)n1` [Example T1-38, 4-(1-(2-aminopyrimidin-4-yl)-2-ethoxy-1H-benzo[d]imidazol-6-yl)-2-methylbut-3-yn-2-ol], the IC50 was found to be 6400 nM in assay [4] and 1000 nM in assay [1]. In addition, in assay [2], the Ki is 16 nM.

For `CC(C)(O)C#Cc1cc2c(cc1F)ncn2-c1ccnc(N)n1` [Example T1-40, 4-(1-(2-aminopyrimidin-4-yl)-5-fluoro-1H-benzo[d]imidazol-6-yl)-2-methylbut-3-yn-2-ol], the 50% inhibitory concentration (IC50) was determined as 346 nM in assay [4] and 332 nM in assay [1]. Moreover, the Ki in assay [2] came to 3 nM.

As for `Cc1cc(C(C)(O)C#Cc2ccc3ncn(-c4ccnc(N)n4)c3c2)on1` (stereo not shown) [Example T1-41, 4-(1-(2-aminopyrimidin-4-yl)-1H-benzo[d]imidazol-6-yl)-2-(3-methylisoxazol-5-yl) but-3-yn-2-ol], the IC50 in assay [1] is 309 nM; in assay [3], 6400 nM. Moreover, in assay [2], the inhibitory constant (Ki) worked out at 8.5 nM.

Turning to `CC(O)(C#Cc1ccc2ncn(-c3nccc(N)n3)c2c1)c1nccs1` (stereo not shown) [Example T1-50, 4-(1-(4-aminopyrimidin-2-yl)-1H-benzo[d]imidazol-6-yl)-2-(thiazol-2-yl)but-3-yn-2-ol], the IC50 in assay [4] was found to be 447 nM. Moreover, the inhibitory constant (Ki) in assay [2] was 152 nM.

As to `Cc1nonc1C(C)(O)C#Cc1ccc2c(C)nn(-c3ccnc(N)n3)c2c1` (stereo not shown) [Example T1-61, 4-(1-(2-aminopyrimidin-4-yl)-3-methyl-1H-indazol-6-yl)-2-(4-methyl-1,2,5-oxadiazol-3-yl)but-3-yn-2-ol], the IC50 in assay [4] was determined as 2100 nM. The Ki in assay [2] was found to be 383 nM.

One may read the IC50 as the concentration at which inhibition is half-maximal. The Ki is a measure of affinity in units of concentration, obtained from inhibition or displacement.

The values are drawn from patent US8901313B2, “6,5-heterocyclic propargylic alcohol compounds and uses therefor” (Genentech, Inc., priority 2011, dated 2014).
